Holding throughout (type): binding, human
The test system of test [1] is IgM antibodies in plasma of Zika virus patients. The experiment in a line: Proteome-wide Zika virus peptide microarray, second study, IgM. Particulars: plasma 1:250, acute and convalescent samples. From the text:
(§1) In a second more extended study, the inventors further characterized the IgG and IgM antibody profiles of Zika patients in a more comprehensive manner Therefore, they translated the proteomes of 19 Zika virus strains taken from sequencing data from Nicaragua, Colombia, Guatemala, Honduras, Mexico and Panama 100 additional Zika virus proteomes from the USA with a higher sequence heterogeneity into 4,356 different overlapping Zika virus peptides printed in duplicate on high-density peptide arrays for a high-resolution proteome-wide epitope screening.
(§2) The inventors used plasma of 100 Zika virus patients with a confirmed dengue virus naïve status in the acute and convalescent phase (200 samples), plasma of 50 Zika virus patients with a confirmed dengue virus positive status in the acute and convalescent phase (100 samples), 50 plasma samples of dengue virus patients in the convalescent phase taken before the Zika virus outbreak as disease control and plasma of 25 individuals with a confirmed dengue virus and Zika virus negative status as healthy controls. […] The multiplexed IgG and IgM analysis was enabled by highly specific fluorescently labeled anti-human IgG and anti-human IgM secondary antibodies with different fluorescence wavelengths for emission and detection. […]

Test [2] relates to IgG antibodies in sera of Zika patients. The experiment in a line: Peptide microarray IgG screening, first study (ZIKV proteome / NS1, NS2a, NS2b arrays). From the text: In a first study, the inventors characterized the antibody profiles of Zika patients in a systematic manner. Therefore, they translated the proteomes of 15 different ZIKV strains (taken from the NCBI database, see Table 1 below) in the form of overlapping peptides as high-density peptide arrays and used 84 different patient and control sera to screen several thousands of potential antigens for pathogen induced antibodies.
In addition, the inventors investigated the time-dependent antibody variation in patients (acute vs. convalescent stage). They screened patient sera from their collaboration partner in Brazil with different peptide arrays, containing the whole proteome of the ZIKV (first screening round). […] Almost no signals could be observed in control samples. […]
In the first study, sera were diluted 1:1000 in PBS buffer with 0.05% Tween 20 pH 7.4 (PBST) and 10% blocking buffer, incubating the sera for 16 h at 4° C. and 50 RPM orbital shaking. […] Image analysis and quantification was performed with the PepSlide Analyzer software (Sicasys Software GmbH, Heidelberg, Germany).
Samples used for the peptide array experiments of the first study were collected from individuals with acute febrile illnesses enrolled in a prospective cohort study from May 2015 to April 2016. […] For molecular viral diagnosis, quantitative real-time PCR (qRT-PCR) for Dengue (DENV) and Zika (ZIKV) viruses was performed. […]

Test [3] has as its system IgG antibodies in plasma of Zika virus patients. In words: Proteome-wide Zika virus peptide microarray, second study, IgG. As to conditions: plasma 1:250, acute and convalescent samples.
From the text: as §1, §2

Test [4] has as its system IgM antibodies in Zika acute and convalescent plasma samples. In words: Full substitution scan peptide microarray, IgM. Particulars: data not shown. From the text:
In a second screening round of the second study, microarrays with peptide substitution scans of linear WT peptide […] (SEQ ID NO. 9) and cyclic WT peptide KDAEVTGNS (SEQ ID NO. 10) were used to determine essential, conserved and less-conserved/variable amino acid positions and to identify stronger responding peptide variants. Each amino acid position in the WT sequence was systematically exchanged by all 20 physiologic amino acids, and the resulting linear and cyclic peptides and peptide variants were printed in triplicate on the peptide substitution scan microarrays. The immunoreactivity of the peptide variants was tested by incubation with Zika acute and convalescent plasma samples. The assays were carried out in a multiplexed format with fluorescently labeled secondary anti-human IgG and anti-human IgM antibodies to simultaneously analyze the IgG and IgM profiles of each sample.
A substitution analysis was performed with the WT peptide […] (SEQ ID No. 9) and cyclic peptide KDAEVTGNS (SEQ ID NO. 10) to determine essential, conserved and less-conserved/variable amino acid positions and to identify stronger reacting peptide variants.
Each amino acid position in the WT sequence was systematically exchanged by all 20 physiologic amino acids, and the resulting peptides and peptide variants were printed in triplicate on peptide microarrays. […]

For test [5], the system named is IgG antibodies in sera of Zika acute and Zika convalescent patients. In words: Chemiluminescence peptide ELISA. Particulars: serum dilution 1:1000, Zika acute and convalescent patient sera. As to the method: The cyclic peptides and WT peptide were tested by a chemiluminescence ELISA using sera of Zika acute and Zika convalescent patients. A healthy control (HC) sera was included. The ELISA assays were performed under stringent conditions, that is at high serum dilutions (1:1000) to better evaluate the diagnostic potential of the peptide marker. The ELISA results are given in chemiluminescence units (CLUs). Samples were considered as positive, if the CLU of a respective sera is >=2 times over HC value.
For ELISA tests, four cyclic peptides with a Biotin tag preceding the C-terminal cysteine residue were synthesized. The non-cyclic WT peptide (“WT peptide”) was synthesized with a C-terminal Biotin tag at the C-terminus, the amino acid sequence was identical to SEQ ID NO. 9.
Peptide ELISA-Tests were performed on Streptavidin functionalized 96 well microtiterplates (Lumitrac, Greiner BioOne, Germany). The plates were coated with the respective biotinylated peptides with a biotin tag positioned at the C-terminus, preceding the C-terminal cysteine. The plates were incubated overnight at 4° C. with test sera at a dilution of 1:1000 (v/v) in PBST/10% Rockland (PBST=Phosphate buffered saline pH 7.2, 0.05% Tween 20). […] The chemiluminescence was measured after 10 minutes at 425 nm using an automated plate reader (CLARIOstar®. BMG LABTECH GmbH, Germany). […]
(In general: ELISA stands for enzyme-linked immunosorbent assay.)

Ends that are not written are not given here.

Take “NS2b: Zika virus non-structural protein NS2b, cofactor of NS3 protease, displayed as overlapping 15-mer peptides on arrays”: in test [1], the “IgM response, proteome-wide microarray” value is listed as “no specific IgM response”. In addition, the “IgG antibody reactivity of Zika patients against the whole ZIKV proteome” value in test [2] (first screening round, arrays with whole proteome content, sera 1:1000) is reported as “most prominent interaction”. For the same substance, the “IgG antibody reactivity, specific arrays with NS1, NS2a, NS2b content” value in test [2] (second screening round) is listed as “clear signals”. For the same substance, the “IgG response, proteome-wide microarray” value in test [3] is “specific IgG responses”.
With “KDAEVTGNS (also: cyclic) [SEQ ID NO. 10, cyclic WT peptide on substitution scan microarrays]”, the “IgM reactivity in substitution scan” value in test [4] is “not a single human sample exhibited any specific IgM reactivity”.
As for WEKDAEVTGNSPRLD [WT peptide], the “IgM reactivity in substitution scan” value in test [4] was “not a single human sample exhibited any specific IgM reactivity”. The “IgG reactivity in chemiluminescence ELISA (positive if CLU >=2 times over HC value)” value in test [5] is listed as “detected Zika specific antibody responses in acute patient sera as well as in convalescent patient sera”.

Values taken from US20200325183A1, “NS2B AS MARKER FOR ZIKA VIRUS INFECTIONS” (priority 2017, published 2020).
